Patent US20160324885A1, “COMPOSITION CONTAINING MODIFIED DERIVATIVES OF A CYTIDINE ANTIMETABOLITE FOR THE TREATMENT OF SUSCEPTIBLE DISEASE” (ASTERIAPHARMA GMBH, priority 2013, published 2016)

What was measured:
HeLa cells [1] = assay: WST-1 cell proliferation assay, HeLa cells; assay type: cell-based, human; parameters: dose or concentration left out as unconfirmed; details: 5 days after start of treatment, WST-1, relative to untreated cells
Experimental: FIG. 1. Inhibition of proliferation of human cancer cells treated with either dFdC or homo-oligomers and hetero-oligomers containing dFdC. HeLa cells growing on 96-well plates (5000 cells/well) were treated with: 1) TpF; 2) FpF; 3) TpFpF; 4) FpFpF; 5) dFdC. The concentration of drug in the culture medium […]. Cell proliferation was measured 5 days after treatment was started using the WST-1 assay. The mean value obtained with untreated cells was set at 1.
Methods: Cervical cancer cell lines (HeLa, SiHa, CaSki and C-33) were cultured at 37° C./5% CO2 in medium containing DMEM with Glutamax™, 1 mM sodium pyruvate, penicillin/streptomycin (PS) and 10% fetal bovine serum (FBS) (Invitrogen/LifeTechnologies). […] The cells were incubated with WST-1 for 1 hour at 37° C./5% CO2, then the amount of formazan dye produced was quantified using a scanning spectrophotometer (ELISA plate reader). The absorbance was measured with a test wavelength at 450 nm and a reference wavelength at 630 nm. Then, the 630 nm background absorbance was subtracted from the 450 nm measurement. […]
2) The FpFpF trinucleotide was tested in comparison with dFdC for its ability to inhibit cell growth of tumor cells of different origin: pancreatic cancer (MIA PaCa-2, ASPC) cervical (HeLa, CaSki, C33A) and hepatic (Huh-7) cancers. […] At this time cell proliferation was quantified using the WST-1 assay as described above. […]

MIA PaCa-2 cells = assay: Proliferation of MIA PaCa-2 cells treated with drug pre-incubated with human serum; assay type: cell-based; details: MIA PaCa-2, serum pre-incubation 2 hours at 37° C., then 72 hours on cells
Experimental: (§1) Methods: The cells were seeded in 96-well plates one day before treatment at a density of 5000 cells/well in 100 μl/well of medium DMEM/Glutamax™/1 mM sodium pyruvate/PS/10%/FBS and cultured at 37° C./5% CO2. Separate serum dilutions of dFdC and FpFpF trinucleotide were prepared from 1 mM stock solutions to a final concentration of 20 μmol/L. The sera aliquots containing either drug were incubated at 37° C./5% CO2 for the indicated times before they were added to the cells to the indicated final concentrations. The cells were incubated for further 72 hours after which the cell proliferation was quantified using the WST-1 assay. Two controls were run in parallel: untreated cells and cells treated with dFdC or FpFpF trinucleotides that were not incubated with serum.

HeLa cells [2] = assay: Proliferation of HeLa cells treated with drug pre-incubated with human serum; assay type: cell-based; details: serum pre-incubation 2 hours at 37° C., then 72 hours on cells
Experimental: as §1

Panc-1 cells = assay: Inhibition of proliferation of Panc-1 cells; assay type: cell-based; details: Homo sapiens, read-out: ID50 (the source's name)
Experimental: Methods: The FpFpF trinucleotide was coupled to lipid as described in the Example 3 for the Palmitoyl-trinucleotide (5′-FpFpF-3′-Pal). Panc-1 cells were plated one day before treatment at a density of 5000 cells/well in a 96-well plate with 100 μl/well of medium RPMI/Glutamax™/1 mM sodium pyruvate/PS/10% FBS and cultured at 37° C./5% CO2. Treatments (6 wells per condition) with wither dFdC, FpFpF and FpFpF-Pal were carried out at the indicated concentrations.

HeLa cells [3] = assay: HeLa xenograft tumor growth delay in immunodeficient mice; assay type: in vivo; details: 10 mg/kg intraperitoneally every fourth day, four doses
Experimental: Objective: To compare the anti-tumor activities of FpFpF trinucleotide and dFdC in vivo in a xenograft model. HeLa cells and immunodeficient mice were used in this assay as described below.
Methods. Immunodeficient CAnN.Cg-Fox1^nu/Cr1 (BALB/c) mice (The Jackson Laboratories) are well suited for the xenotransplantation of human tumors. HeLa cells (5×10^6) were mixed 1:1 with matrigel in a final volume of 0.1 ml and then injected subcutaneously in the right flank of each mouse. Treatments were initiated at the time when the tumor volume reached approximately 200 mm^3. The drugs (FpFpF trinucleotide or dFdC) were administered intraperitoneally at 10 mg/kg every fourth day for a total of four doses. Tumor volumes were calculated with the ellipsoid volume formula (L×W×H×π/6) (Tomayko and Reynolds, 1989). Tumor volume values were transformed to a log scale. A two-way analysis of variance by time and treatment was used. The data are finally expressed as means and standard errors for each treatment group against time. A Weibull distribution was assumed to calculate mean times and standard errors for each treatment group. Tumor growth delay was defined as the difference in mean time between each treated group and the control group.

[4] = following intravenous administration; cited from earlier work
[5] = mice, normal tissues and subcutaneous sarcoma tissue; cited from earlier work
[6] = in vivo; cited from earlier work

Molecule	inhibition of cell proliferation (HeLa cells [1]) [%]	inhibition of proliferation after pre-incubation of drug with human serum (MIA PaCa-2 cells) [%]	inhibition of proliferation after pre-incubation of drug with human serum (HeLa cells [2]) [%]	IC50 (Panc-1 cells) [µM]	Tumor Growth Delay at 500 mm^3, Mean ± S.E.M. (HeLa cells [3]; tumor size 500 mm^3) [days]	Tumor Growth Delay at 700 mm^3, Mean ± S.E.M. (HeLa cells [3]; tumor size 700 mm^3) [days]	Tumor Growth Delay at 900 mm^3, Mean ± S.E.M. (HeLa cells [3]; tumor size 900 mm^3) [days]	half-life in the human plasma [4] [min]	time radiolabeled dFdC remains in tissues [5]	excreted unprocessed in the urine [6]
2′-deoxy-2′,2′-difluorocytidinyl 3′-5′ phosphate 2′-deoxy-2′,2′-difluorocytidine [FpF]	~56									
Nc1ccn([C@@H]2O[C@H](CO)[C@@H](O)C2(F)F)c(=O)n1 [dFdC, 2′.2′-difluoro 2′-deoxycytidine]		10	5	12.2	2.8 ± 0.3	4.9 ± 0.6	7.7 ± 0.5	8 to 17	up to 3 hours	less than 10%
thymidinyl 3′-5′ phosphate 2′-deoxy-2′,2′-difluorocytidine [TpF]	19									
